Results on 14 compounds are retold here after ChEMBL document CHEMBL4825739, “Cannabinoid Receptor Agonists for the Potential Treatment of Pain, Neurological Disorders, Fibrotic Diseases, Obesity, and Many More” (ACS Med Chem Lett, 2021).

Common to all, as to assay type: functional, cell-based
Experiment [1] has as its target T1, Cannabinoid receptor 1 (Homo sapiens, UniProt P21554). Nature of the experiment: Agonist activity at human CB1 receptor expressed in CHO-K1 cells assessed as maximum efficacy incubated for 20 mins measured after 60 mins addition of cAMP detect reagent by HTRF analysis relative to control. The settings on record: filed as agonist.
Experiment [2] deals with T1, Cannabinoid receptor 1. Nature of the experiment: Agonist activity at human CB1 receptor expressed in CHO-K1 cells assessed as […] incubated for 20 mins measured after 60 mins addition of cAMP detect reagent by HTRF analysis. A general note: Changes in cAMP serve as a functional read-out for many G protein-coupled receptors.
Experiment [3] addresses T2, Cannabinoid receptor 2 (Homo sapiens, UniProt P34972). The experiment in a line: Agonist activity at human CB2 receptor expressed in CHO-K1 cells assessed as maximum efficacy incubated for 20 mins measured after 60 mins addition of cAMP detect reagent by HTRF analysis relative to control. Particulars: filed as agonist, time 80.0 min. A general note: TR-FRET usually uses a lanthanide donor and a delayed reading to cut background.

The target of experiment [4] is T2, Cannabinoid receptor 2. Nature of the experiment: Agonist activity at human CB2 receptor expressed in CHO-K1 cells assessed as […] incubated for 20 mins measured after 60 mins addition of cAMP detect reagent by HTRF analysis.

Each structure is given as a SMILES string.

T1 sequence (P21554 whole entry): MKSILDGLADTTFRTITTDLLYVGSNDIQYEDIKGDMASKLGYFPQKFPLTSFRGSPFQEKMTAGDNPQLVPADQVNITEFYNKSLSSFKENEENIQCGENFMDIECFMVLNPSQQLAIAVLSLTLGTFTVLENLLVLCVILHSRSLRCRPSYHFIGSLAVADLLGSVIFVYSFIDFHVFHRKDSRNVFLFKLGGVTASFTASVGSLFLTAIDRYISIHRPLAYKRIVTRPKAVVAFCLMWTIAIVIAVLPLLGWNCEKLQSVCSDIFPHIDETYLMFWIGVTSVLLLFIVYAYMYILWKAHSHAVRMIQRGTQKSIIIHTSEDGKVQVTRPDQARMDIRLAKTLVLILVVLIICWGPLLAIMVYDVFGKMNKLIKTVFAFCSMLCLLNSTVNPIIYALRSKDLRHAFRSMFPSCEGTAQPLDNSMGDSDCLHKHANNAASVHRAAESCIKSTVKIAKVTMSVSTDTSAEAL
T2 sequence (P34972 whole entry): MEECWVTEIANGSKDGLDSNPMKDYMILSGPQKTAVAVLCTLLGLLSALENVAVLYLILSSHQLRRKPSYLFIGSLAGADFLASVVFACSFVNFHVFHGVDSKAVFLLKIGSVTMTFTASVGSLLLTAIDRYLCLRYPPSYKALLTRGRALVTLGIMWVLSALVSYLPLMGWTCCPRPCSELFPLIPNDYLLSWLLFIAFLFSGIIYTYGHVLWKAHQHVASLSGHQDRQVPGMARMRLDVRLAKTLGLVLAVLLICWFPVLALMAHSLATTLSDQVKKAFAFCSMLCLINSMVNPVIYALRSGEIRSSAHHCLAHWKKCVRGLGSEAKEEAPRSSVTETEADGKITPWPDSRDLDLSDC

By Emax is commonly meant the size of the effect at its maximum, as opposed to the concentration needed. The term EC50 denotes the midpoint of the concentration-response curve. Turning to `CC(C)(C)[C@@H](CO)NC(=O)c1nn(-c2cnccn2)c2c1C[C@@H]1CC[C@H]2O1`, the Emax in experiment [1] is 100%; in experiment [3], less than 50%. Also, the EC50 in experiment [2] is 0.56 nM.

In the case of `CC(C)(C)NC(=O)c1c2c(nn1-c1c[n+]([O-])ccn1)C1CCC(C2)O1` (stereo not given), the Emax in experiment [1] was 66.3%; in experiment [3] it was less than 50%. Further, the EC50 in experiment [2] turned out to be 7970 nM.

As to `CC(C)(C)NC(=O)c1c2c(nn1-c1ccc(F)cc1F)C1CCC(C2)O1` (stereo not given), the Emax in experiment [1] is 72.8%; in experiment [3], less than 50%. Moreover, in experiment [2], the EC50 is 2980 nM.

For the compound `O=C(NC12CC3CC(CC1C3)C2)c1nn(-c2cnccn2)c2c1CC1CCC2O1` (stereo not given), the EC50 turned out to be 16.6 nM in experiment [4] and 0.02 nM in experiment [2]. The figures for the Emax in experiment [1] and in experiment [3] were 100% and 111%, respectively.

Regarding `O=C(NC1(C(F)(F)F)CCC1)c1nn(-c2cnccn2)c2c1CC1CCC2O1` (stereo not given), the EC50 in experiment [4] was found to be 571 nM; in experiment [2], 0.04 nM. Further, the values for the maximum response (Emax) in experiment [1] and in experiment [3] were 100% and 90.3%, respectively.

Turning to `O=C(NC12CCC(CC1)CC2)c1nn(-c2c[n+]([O-])ccn2)c2c1CC1CCC2O1` (stereo not given), the 50% effective concentration (EC50) worked out at 48.5 nM in experiment [4] and 0.02 nM in experiment [2]. Further, the results for the Emax in experiment [1] and in experiment [3] were 99.7% and 96.5%, respectively.

As to `O=C(NC12CC3CC(CC1C3)C2)c1nn(-c2ccc(F)cc2F)c2c1CC1CCC2O1` (stereo not given), the EC50 in experiment [4] worked out at 0.7 nM; in experiment [2], 0.08 nM. Also, the Emax in experiment [1] was determined as 99.1%; in experiment [3], 98%.

As to `CC(C)(C)c1nnc(-c2nn(-c3c[n+]([O-])ccn3)c3c2CC2CCC3O2)s1` (stereo not given), the values for the EC50 in experiment [4] and in experiment [2] were 130 nM and 0.06 nM, respectively. Moreover, the values for the Emax in experiment [1] and in experiment [3] were 99% and 94.9%, respectively.

`CC(C)(C)NC(=O)c1nn(-c2ccc(F)cc2F)c2c1CC1CCC2O1` (stereo not given): the values for the EC50 in experiment [4] and in experiment [2] were 108 nM and 1.2 nM, respectively. Besides, the Emax in experiment [1] worked out at 95.6%; in experiment [3], 99%.

Consider `CC(C)(C)NC(=O)c1c2c(nn1-c1cnccn1)CC1CCC2O1` (stereo not given), for which the Emax in experiment [1] is 85.8%; in experiment [3], less than 50%. Besides, in experiment [2], the half-maximal effective concentration (EC50) came to 1650 nM.

Turning to `CC(C)(C)[C@@H](CO)NC(=O)c1nn(-c2cnccn2)c2c1C[C@H]1CCC2O1` (single isomer, unassigned), the EC50 was determined as 422 nM in experiment [4] and 0.09 nM in experiment [2]. Besides, the Emax in experiment [1] worked out at 100%; in experiment [3] it was 111%.

As for `CCC(C)(C)c1noc(-c2nn(-c3cnccn3)c3c2CC2CCC3O2)n1` (stereo not given), the results for the Emax in experiment [1] and in experiment [3] were 99.8% and less than 50%, respectively. Moreover, the EC50 in experiment [2] amounted to 0.04 nM.

As for `CC(C)(C)NC(=O)c1c2c(nn1-c1c[n+]([O-])ccn1)CC1CCC2O1` (stereo not given), the Emax was 80.3% in experiment [1] and less than 50% in experiment [3]. Besides, the half-maximal effective concentration (EC50) in experiment [2] worked out at 2670 nM.

For the compound `O=C(NC12CC(C1)C2)c1nn(-c2c[n+]([O-])ccn2)c2c1CC1CCC2O1` (stereo not given), the EC50 is 1780 nM in experiment [4] and 0.05 nM in experiment [2]. Also, the results for the Emax in experiment [1] and in experiment [3] were 100% and 91%, respectively.
